Active and inactive are the calls of the source. The calls are words filed in the database; no cut-off is given here.
Assays:
[1] = target: Cyclin-dependent kinase 1/cyclin B1 (Homo sapiens, UniProt P06493); experiment: Inhibition of CDK1/Cyclin B (unknown origin) by radiometric assay; format: protein-complex assay; conditions: read-out: Ki(app)
[2] = target: CDK2/Cyclin A2 (Homo sapiens, UniProt P24941); experiment: Inhibition of CDK2/Cyclin A (unknown origin) by radiometric assay; format: protein-complex assay; conditions: read-out: Ki(app)
[3] = target: CDK9/cyclin T1 (Homo sapiens, UniProt P50750); experiment: Inhibition of CDK9/Cyclin T1 (unknown origin) by radiometric assay; format: protein-complex assay; conditions: read-out: Ki(app)
Chain of CDK9/cyclin T1 (O60563 whole entry): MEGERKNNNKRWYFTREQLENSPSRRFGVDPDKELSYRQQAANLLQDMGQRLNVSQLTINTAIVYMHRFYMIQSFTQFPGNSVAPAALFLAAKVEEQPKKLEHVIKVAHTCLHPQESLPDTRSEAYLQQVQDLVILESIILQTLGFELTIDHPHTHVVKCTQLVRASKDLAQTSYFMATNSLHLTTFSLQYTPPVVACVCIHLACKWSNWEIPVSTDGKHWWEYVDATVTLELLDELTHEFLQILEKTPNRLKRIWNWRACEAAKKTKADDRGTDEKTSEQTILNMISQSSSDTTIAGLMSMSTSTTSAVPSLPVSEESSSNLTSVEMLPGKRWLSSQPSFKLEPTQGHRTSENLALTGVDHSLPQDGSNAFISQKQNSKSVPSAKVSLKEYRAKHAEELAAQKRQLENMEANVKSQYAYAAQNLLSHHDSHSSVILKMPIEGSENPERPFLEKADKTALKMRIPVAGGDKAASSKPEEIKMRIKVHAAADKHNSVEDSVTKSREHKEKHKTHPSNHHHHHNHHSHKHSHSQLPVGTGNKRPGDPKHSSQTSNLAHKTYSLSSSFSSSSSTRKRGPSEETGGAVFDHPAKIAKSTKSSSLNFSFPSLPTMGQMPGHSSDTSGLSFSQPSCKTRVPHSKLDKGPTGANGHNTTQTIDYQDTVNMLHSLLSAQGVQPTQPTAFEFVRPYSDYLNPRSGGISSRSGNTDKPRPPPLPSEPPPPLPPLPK
Chain of CDK9/cyclin T1 (P50750 whole entry): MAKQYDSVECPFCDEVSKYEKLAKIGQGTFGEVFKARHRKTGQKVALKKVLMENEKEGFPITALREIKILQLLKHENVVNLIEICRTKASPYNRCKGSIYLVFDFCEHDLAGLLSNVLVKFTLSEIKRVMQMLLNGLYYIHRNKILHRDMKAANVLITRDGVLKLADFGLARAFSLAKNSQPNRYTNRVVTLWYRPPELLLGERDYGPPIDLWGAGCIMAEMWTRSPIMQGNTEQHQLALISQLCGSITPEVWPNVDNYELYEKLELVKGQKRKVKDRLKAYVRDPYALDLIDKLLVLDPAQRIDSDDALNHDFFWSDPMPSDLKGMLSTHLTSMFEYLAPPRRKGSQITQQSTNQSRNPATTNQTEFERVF

[4] = target: Cyclin-dependent kinase 7/ cyclin H (Homo sapiens, UniProt P50613); experiment: Inhibition of CDK7/Cyclin H (unknown origin) by radiometric assay; format: protein-complex assay; conditions: read-out: Ki(app)
Chain of Cyclin-dependent kinase 7/ cyclin H (P51946 whole entry): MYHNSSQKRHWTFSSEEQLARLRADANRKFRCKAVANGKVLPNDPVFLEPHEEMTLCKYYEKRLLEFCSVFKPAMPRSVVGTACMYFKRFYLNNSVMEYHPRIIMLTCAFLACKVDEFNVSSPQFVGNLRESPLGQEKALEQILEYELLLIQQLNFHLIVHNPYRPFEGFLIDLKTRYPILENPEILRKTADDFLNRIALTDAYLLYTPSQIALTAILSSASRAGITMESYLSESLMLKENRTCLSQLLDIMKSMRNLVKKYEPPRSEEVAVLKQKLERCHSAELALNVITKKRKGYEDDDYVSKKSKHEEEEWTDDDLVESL
Chain of Cyclin-dependent kinase 7/ cyclin H (P50613 whole entry): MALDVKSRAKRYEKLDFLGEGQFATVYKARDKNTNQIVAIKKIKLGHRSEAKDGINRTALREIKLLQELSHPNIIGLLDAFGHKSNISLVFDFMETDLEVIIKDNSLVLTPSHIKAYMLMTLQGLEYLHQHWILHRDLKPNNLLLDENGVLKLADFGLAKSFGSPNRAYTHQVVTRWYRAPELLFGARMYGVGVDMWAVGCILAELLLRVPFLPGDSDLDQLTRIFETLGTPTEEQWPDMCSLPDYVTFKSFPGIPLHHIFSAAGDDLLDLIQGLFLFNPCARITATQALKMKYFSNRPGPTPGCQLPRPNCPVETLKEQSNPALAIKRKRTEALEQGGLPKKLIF

[5] = tested on: MCF7; experiment: Growth inhibition of human MCF7 cells after 48 hrs by MTT assay; format: functional; conditions: MCF7, 48 h
[6] = tested on: HCT-116; experiment: Growth inhibition of human HCT116 cells after 48 hrs by MTT assay; format: functional; conditions: HCT-116, 48 h
[7] = target: Cyclin-dependent kinase 9 (Homo sapiens) (UniProt P50750); experiment: Inhibition of CDK9 in human HCT116 cells assessed as decrease in RNAP2 CTD phosphorylation at Ser5 at 10 uM after 24 hrs by Western blot analysis; format: cell-based; conditions: HCT-116
Chain of Cyclin-dependent kinase 9 (Homo sapiens) (P50750 whole entry): as the sequence (P50750 whole entry) above

[8] = target: Cyclin-dependent kinase 9 (Homo sapiens) (UniProt P50750); experiment: Inhibition of CDK9 in human HCT116 cells assessed as decrease in RNAP2 CTD phosphorylation at Ser2 at 1 to 5 uM after 24 hrs by Western blot analysis; format: cell-based; conditions: HCT-116
[9] = target: Cyclin-dependent kinase 9 (Homo sapiens) (UniProt P50750); experiment: Inhibition of CDK9 in human HCT116 cells assessed as downregulation of Mcl-1 protein expression at 1 to 5 uM after 24 hrs by Western blot analysis; format: cell-based; conditions: HCT-116
[10] = organism: Homo sapiens; experiment: Selectivity ratio of Ki(app) for CDK7/Cyclin H (unknown origin) to Ki(app) for CDK9/Cyclin T1 (unknown origin)

Chain of Cyclin-dependent kinase 1/cyclin B1 (P06493 whole entry): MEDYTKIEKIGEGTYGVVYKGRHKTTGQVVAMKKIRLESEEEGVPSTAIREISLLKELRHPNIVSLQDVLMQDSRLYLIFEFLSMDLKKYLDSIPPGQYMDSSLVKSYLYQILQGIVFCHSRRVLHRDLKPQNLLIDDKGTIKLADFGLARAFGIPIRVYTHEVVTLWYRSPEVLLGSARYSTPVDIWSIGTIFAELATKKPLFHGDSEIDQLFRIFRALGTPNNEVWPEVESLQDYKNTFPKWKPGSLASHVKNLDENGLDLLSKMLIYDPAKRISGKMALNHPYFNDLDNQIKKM
Chain of Cyclin-dependent kinase 1/cyclin B1 (P14635 whole entry, further chain): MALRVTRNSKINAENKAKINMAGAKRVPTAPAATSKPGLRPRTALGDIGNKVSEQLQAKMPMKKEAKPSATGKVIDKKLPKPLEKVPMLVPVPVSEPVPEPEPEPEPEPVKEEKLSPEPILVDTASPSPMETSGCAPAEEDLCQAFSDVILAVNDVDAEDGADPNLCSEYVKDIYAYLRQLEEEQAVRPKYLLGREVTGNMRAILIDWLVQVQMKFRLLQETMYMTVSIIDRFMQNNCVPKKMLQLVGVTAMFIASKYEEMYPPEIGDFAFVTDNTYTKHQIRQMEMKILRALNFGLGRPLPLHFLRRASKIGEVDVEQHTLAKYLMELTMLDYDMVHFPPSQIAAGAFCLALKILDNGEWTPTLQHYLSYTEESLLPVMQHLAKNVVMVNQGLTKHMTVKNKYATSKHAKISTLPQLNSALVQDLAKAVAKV

SMILES | Ki [1] [nM] | Ki [2] [nM] | Ki [3] [nM] | Ki [4] [nM] | GI50 [5] [nM] | GI50 [6] [nM] | inhibition [7] | inhibition [8] | inhibition [9] | Ratio Ki(app) [10]
CNc1nc(C)c(-c2nc(Nc3ccc(C(=O)NC4CCN(C)CC4)cc3)ncc2C#N)s1 | 43 | 32 | 8 | 304 | – | – | – | – | – | –
CNc1nc(C)c(-c2nc(Nc3cccc(S(=O)(=O)N4CCN(C)CC4)c3)ncc2C#N)s1 | 576 | 584 | 35 | 24 | – | – | – | – | – | –
CNc1nc(C)c(-c2nc(Nc3cccc(N4CCN(C)CC4)c3)ncc2F)s1 | 32 | 41 | 7 | 541 | – | – | – | – | – | –
CNc1nc(C)c(-c2ccnc(Nc3cccc(C(=O)N4CCOCC4)c3)n2)s1 | 261 | 485 | 95 | 393 | 550 | 520 | – | – | – | –
CNc1nc(C)c(-c2nc(Nc3cc(C(=O)N4CCN(C)CC4)ccc3Cl)ncc2C#N)s1 | > 5000 | > 5000 | 715 | > 5000 | – | – | – | – | – | –
CNc1nc(C)c(-c2nc(Nc3cccc(C(=O)N4CCN(C)CC4)c3)ncc2C#N)s1 | 313 | 164 | 19 | 840 | 1380 | 720 | – | – | – | –
CNc1nc(C)c(-c2nc(Nc3cccc(S(=O)(=O)NCCOC)c3)ncc2F)s1 | 10 | 6 | 3 | 30 | – | – | – | – | – | –
CNc1nc(C)c(-c2nc(Nc3ccc(C)c(S(=O)(=O)N4CCOCC4)c3)ncc2F)s1 | 101 | 130 | 11 | 133 | – | – | – | – | – | –
CNc1nc(C)c(-c2nc(Nc3cccc(C(=O)NC4CCN(C)CC4)c3)ncc2F)s1 | 64 | 231 | 36 | 542 | – | – | – | – | – | –
CNc1nc(C)c(-c2ccnc(Nc3ccc(C)c(S(=O)(=O)N4CCOCC4)c3)n2)s1 | 357 | 294 | 27 | 150 | 1610 | 940 | – | – | – | –
CNc1nc(C)c(-c2nc(Nc3cccc(S(=O)(=O)NCCOC)c3)ncc2C#N)s1 | 34 | 22 | 16 | 180 | – | – | – | – | – | –
CNc1nc(C)c(-c2nc(Nc3cccc(C(=O)NC4CCN(C)CC4)c3)ncc2C#N)s1 | 262 | 316 | 14 | 163 | – | – | Active | Active | Active | –
Cc1nc(N)sc1-c1nc(Nc2cccc(N3CCN(C)CC3)c2)ncc1F | 65 | 68 | 11 | 476 | – | – | – | – | – | –
CNc1nc(C)c(-c2nc(Nc3cccc(C(=O)N4CCOCC4)c3)ncc2C#N)s1 | 205 | 199 | – | 1870 | 820 | 590 | – | – | – | 43
CNc1nc(C)c(-c2nc(Nc3cccc(S(C)(=O)=O)c3)ncc2C#N)s1 | 19 | 43 | 5 | 110 | – | – | – | – | – | –
Cc1nc(N)sc1-c1nc(Nc2cccc(S(N)(=O)=O)c2)ncc1F | – | – | – | 252 | – | – | – | – | – | –
CC(=O)N1CCN(c2cccc(Nc3ncc(F)c(-c4sc(N)nc4C)n3)c2)CC1 | 41 | 77 | 11 | 1460 | – | – | – | – | – | –
CNc1nc(C)c(-c2nc(Nc3cccc(S(=O)(=O)N4CCOCC4)c3)ncc2C#N)s1 | 73 | 55 | 14 | 893 | – | – | – | – | – | –
CNc1nc(C)c(-c2nc(Nc3cccc(C(=O)N4CCN(C(C)=O)CC4)c3)ncc2C#N)s1 | 166 | 134 | 17 | 552 | – | – | – | – | – | –

Reference: ChEMBL document CHEMBL3085738, “Synthesis, structure-activity relationship and biological evaluation of 2,4,5-trisubstituted pyrimidine CDK inhibitors as potential anti-tumour agents” (Eur J Med Chem, 2013)
